According to patent US20040115813A1, “Real time measurement of cellular responses” (priority 2002, published 2004):

Assays:
Format in all cases: cell-based, human
[1] = test system: HT-1080-dual-6 cells; experiment: Real time observation of apoptotic process in vitro by fluorescence microscopy; conditions: 2 μM staurosporine; for apoptosis induction: imaged every 2 hours up to 12 hours; for nuclear/cytoplasmic morphology during apoptosis: images at 2-12 hours
Method: HT-1080-dual-6 cells were incubated with 2 μM staurosporine for apoptosis induction. The cells were visualized under blue light and images were captured with a CCD camera and fluorescence microscope. […] Bar, 50 μm. […] Bar, 10 μm.
To capture the images of real time apoptotic processes, the HT-1080-dual-6 clone was used. Staurosporine (Alexis, San Diego, Calif.), dissolved in DMSO and stored at −80 degrees, was used for induction of apoptosis. 3×10^5 cells were seeded in a 25 cm^2 flask with RPMI 1640 with 10% FBS. Staurosporine was added the next day at a concentration of 2 μM. Every 2 hours, the flask was set under the fluorescent stereo microscope and real time images were captured at each time point.

[2] = test system: PC-3 dual cells; experiment: DNA extraction and agarose gel electrophoresis (1.8%) for DNA fragmentation; conditions: Taxol 0.8 μg/ml
Method: (§1) PC-3 dual cells were treated with Taxol™ (0.8 ug/ml); thymidine (2 mM), and vinblastine (60 nM). Real-time imaging was done at 0, 12, 24, 36, and 48 hours. Cells were collected for DNA extraction and agarose gel electrophoresis (1.8%) analysis. […] The nuclear ring structures were […] by 24 hours.

[3] = test system: PC-3 dual cells; experiment: Real-time visualization of drug-induced apoptosis and nuclear morphology in dual-labeled cells
Excerpt: The dual-color cells could be easily placed in their cell cycle position by the “nuclear-cytoplasmic” ratio as observed in living cells. For fluorescence microscopy of these cells, a Leica fluorescence stereo microscope model LZ12 equipped with a mercury 50W lamp power supply was used. To visualize both GFP and RFP fluorescence at the same time, excitation was produced through a D425/60 band pass filter, 470 DCXR dichroic mirror, and emitted fluorescence was collected through a long pass filter GG475 (Chroma Technology, Brattleboro, Vt.).
as §1

**Q.** How did the apoptosis induction [1] turn out when `CN[C@@H]1C[C@H]2O[C@@](C)([C@@H]1OC)n1c3ccccc3c3c4c(c5c6ccccc6n2c5c31)C(=O)NC4` [Staurosporine] was run?
**A.** induced apoptosis

**Q.** And the apoptosis induction ([1]; listed as staurosporine)?
**A.** Apoptosis was well induced

**Q.** What about the “nuclear/cytoplasmic morphology during apoptosis” value [1] of the same compound?
**A.** Progressive fragmentation of nucleus

**Q.** What about the “nuclear/cytoplasmic morphology during apoptosis” value ([1]; listed as staurosporine) of the same compound?
**A.** condensation of cytoplasm and nucleus and fragmentation of nucleus

**Q.** For `CC(=O)O[C@H]1C(=O)[C@@]2(C)[C@H]([C@H](OC(=O)c3ccccc3)[C@]3(O)C[C@H](OC(=O)[C@H](O)[C@@H](NC(=O)c4ccccc4)c4ccccc4)C(C)=C1C3(C)C)[C@]1(OC(C)=O)CO[C@@H]1C[C@@H]2O` [Taxol™, Paclitaxel], which “DNA fragmentation by gel electrophoresis” value ([2]; 24 hours) is on record?
**A.** before DNA fragmentation occurred

**Q.** And the “DNA fragmentation by gel electrophoresis” value ([2]; 48 hours)?
**A.** DNA fragmentation could be observed

**Q.** What about the “effect on nuclei (morphology)” value ([3]; Taxol 0.8 μg/ml, by 24 hours) of the same compound?
**A.** form a ring-shaped structure

**Q.** What about the “apoptosis (aberrant nuclear structures and fragmentation)” value ([3]; Taxol 0.8 μg/ml, by 48 hours) of the same compound?
**A.** entering apoptosis with very aberrant nuclear structures and fragmentation

**Q.** For `CC[C@]1(O)C[C@@H]2CN(CCc3c([nH]c4ccccc34)[C@@](C(=O)OC)(c3cc4c(cc3OC)N(C)[C@H]3[C@@](O)(C(=O)OC)[C@H](OC(C)=O)[C@]5(CC)C=CCN6CC[C@]43[C@@H]65)C2)C1` [vinblastine], which “effect on cell nuclei and cytoplasm (morphology)” value ([3]; vinblastine 60 nM) is on record?
**A.** nuclei became more condensed and the cytoplasm appeared to expand
